Columns and labels:
[1] = system: KP1004 KPC-2; test: Dose titration biapenem potentiation assay (MPC1); assay type: cell-based, Klebsiella pneumoniae; details: biapenem 1 μg/mL
[2] = system: KP1008 KPC-2; test: Dose titration biapenem potentiation assay (MPC1); assay type: cell-based, Klebsiella pneumoniae; details: biapenem 1 μg/mL
[3] = system: Klebsiella pneumonia (KPM1097) NDM-1, KPC-2; test: Biapenem MIC at various concentrations of Compound 5; assay type: cell-based; details: KPM1097 NDM-1, KPC-2
[4] = system: bacterial strains that expressed the beta-lactamase, KPC-2 alone or in combination with NDM-1; test: Biapenem MIC at various concentrations of Compound 5 (summary); assay type: cell-based
[5] = system: Acinetobacter baumannii AB1057 (OXA-58); test: Checkerboard assay, biapenem potentiation (MPC8); assay type: cell-based; details: concentration to reduce biapenem MIC 8-fold
Method: (§1) The potency and spectrum of β-lactamase inhibitors was determined by assessing their antibiotic potentiation activity.
(§2) The potentiation effect is observed by the reduction of the minimum inhibitory concentration of β-lactam antibiotics in the presence of β-lactamase inhibitors (BLIs). […] Methods for Dilution of Antimicrobial Susceptibility Tests for Bacteria That Grow Aerobically—Eighth Edition; Approved Standard. CLSI Document M07-A8, 2009). In this assay, multiple dilutions of two drugs, namely BLI and β-lactam (biapenem), are being tested, alone and in combination, at concentrations equal to, above and below their respective minimal inhibitory concentrations (MICs). BLIs are solubilized in 10% DMSO at 10 mg/mL. Stock solutions are further diluted, according to the needs of a particular assay, in Mueller Hinton Broth (MHB). Stock solution can be stored at −80° C.
(§3) The checkerboard (CB) assay is performed in microtiter plates. Biapenem is diluted in the x axis, each column containing a single concentration of antibiotic. BLIs are diluted in the y axis, each row containing an equal concentration of BLI. The result of these manipulations is that each well of the microtiter plate contains a unique combination of concentrations of the two agents. The assay is performed in MHB with a final bacterial inoculum of 5×10^5 CFU/mL (from an early-log phase culture). Microtiter plates are incubated during 20 h at 35° C. and are read using a microtiter plate reader (Molecular Devices) at 650 nm as well as visual observation using a microtiter plate reading mirror.
(§4) Biapenem is a carbapenem β-lactam; only selected β-lactamases confer resistance to this class of antibiotics. Among them are serine carbapemenases that belong to class A and class D. Biapenem potentiation is studied in strains expressing various carbapenemases from these classes using CB assays. […] Cyclic boronic acid derivatives were capable of reducing biapenem MICs up to 1000-fold (Table 3).

[6] = system: Acinetobacter baumannii AB1054 (OXA-23); test: Checkerboard assay, biapenem potentiation (MPC8); assay type: cell-based; details: concentration to reduce biapenem MIC 8-fold
Method: as §1, §2, §3, §4

[7] = system: Klebsiella pneumoniae KP1004 (KPC-2); test: Checkerboard assay, biapenem potentiation (MPC8); assay type: cell-based; details: concentration to reduce biapenem MIC 8-fold
Method: as §1, §2, §3, §4

O=C(O)C[C@@H]1CC[C@H](NC(=O)Cc2cccs2)B(O)O1 [Compound 5, 2-((3R,6S)-2-hydroxy-3-(2-(thiophen-2-yl)acetamido)-1,2-oxaborinan-6-yl)acetic acid]
BPM MPC1 KP1004 KPC-2 [1]: X (X = MPC1 of less than 1 μg/mL.)
BPM MPC1 KP1008 KPC-2 [2]: X (X = MPC1 of less than 1 μg/mL.)
Biapenem MIC ([3]; Compound 5 0.31 μg/ml): 2 µg/mL
Biapenem MIC ([3]; Compound 5 0.63 μg/ml): 1 µg/mL
Biapenem MIC ([3]; Compound 5 5 μg/ml): 1 µg/mL
Biapenem MIC ([3]; Compound 5 10 μg/ml): 1 µg/mL
Biapenem MIC ([3]; Compound 5 20 μg/ml): 1 µg/mL
Biapenem MIC ([3]; Compound 5 […]): 1 µg/mL
effect on Biapenem MIC [4]: decreased the Biapenem MIC
MPC8 [5]: Z (Z = MPC8 of greater than 1 μg/mL.)
MPC8 [6]: Z (Z = MPC8 of greater than 1 μg/mL.)
MPC8 [7]: X (X = MPC8 of less than 0.16 μg/mL.)

Source: US20150119363A1, “METHODS OF TREATING BACTERIAL INFECTIONS” (Rampex Pharmaceuticals, Inc., priority 2012, published 2015)
